The source of these data is US11807644B2 (PMV Pharmaceuticals, Inc., priority 2020, dated 2023).

The first assay has as its target T1, recombinant His-tag Y220C p53 DBD protein (Homo sapiens, UniProt P04637, Y220C).
T1 construct: recombinant His-tag Y220C p53 DBD protein (amino acids #˜94-312)
The experiment in a line: In vitro DNA binding activity assay (TR-FRET): binding of His-tag Y220C p53 DBD to biotin-labeled consensus DNA. The following applies: SC150 = concentration to increase DNA binding by […], His-tag Y220C p53 DBD, biotin-labeled consensus DNA. It counts as biochemical.
Take `CN1CCC(Nc2cccc3c2cc(-c2nc(CNC(=O)c4ccn(C)n4)no2)n3CC(F)(F)F)CC1` [Compound 141B, 1-methyl-N-[(5-{4-[(1-methylpiperidin-4-yl)amino]-1-(2,2,2-trifluoroethyl)-1H-indol-2-yl}-1,2,4-oxadiazol-3-yl)methyl]-1H-pyrazole-3-carboxamide]: the “Y220C SC150 (μM)” value was “** (** = 0.1 μM ≤ SC150 < 0.5 μM)”.

Regarding `O=C(NCc1nc(-c2cc3c(NC4CCNC4)cccc3n2CC(F)(F)F)no1)C1CC1` (racemic) [Compound 167B, (+/−)-N-[(3-{4-[(pyrrolidin-3-yl)amino]-1-(2,2,2-trifluoroethyl)-1H-indol-2-yl}-1,2,4-oxadiazol-5-yl)methyl]cyclopropanecarboxamide], the “Y220C SC150 (μM)” value was “* (* = 0 μM ≤ SC150 < 0.1 μM)”.

With `CCn1cccc1C(=O)NCc1nc(-c2cc3c(N[C@@H]4CCN(C)C[C@@H]4F)cccc3n2CC(F)(F)F)no1` [Compound 534B, 1-ethyl-N-{[3-(4-{[(3S,4R)-3-fluoro-1-methylpiperidin-4-yl]amino}-1-(2,2,2-trifluoroethyl)-1H-indol-2-yl)-1,2,4-oxadiazol-5-yl]methyl}-1H-pyrrole-2-carboxamide], the “Y220C SC150 (μM)” value was “* (* = 0 μM ≤ SC150 < 0.1 μM)”. The same measure, in the same setting: under `CN1CC[C@@H](Nc2cccc3c2cc(-c2noc(CNC(=O)c4ccn(C5CCOC5)c4)n2)n3CC(F)(F)F)[C@@H](F)C1` (stereo partly drawn) [Compound 323B, N-{[3-(4-{[(3S,4R)-3-fluoro-1-methylpiperidin-4-yl]amino}-1-(2,2,2-trifluoroethyl)-1H-indol-2-yl)-1,2,4-oxadiazol-5-yl]methyl}-1-(oxolan-3-yl)-1H-pyrrole-3-carboxamide] stands “* (* = 0 μM ≤ SC150 < 0.1 μM)”; under `CN1CCC(Nc2cccc3c2cc(-c2nnc(CNC4CCNC4)s2)n3CC(F)(F)F)CC1` (stereo not shown) [Compound 80B, N-(1-methylpiperidin-4-yl)-2-(5-{[(pyrrolidin-3-yl)amino]methyl}-1,3,4-thiadiazol-2-yl)-1-(2,2,2-trifluoroethyl)-1H-indol-4-amine], “**** (**** = 1 μM ≤ SC150 < 10 μM)”. On the same count and under the same terms, for `CN1CC[C@@H](Nc2cccc3c2cc(-c2noc(CNC(=O)c4cn(C5CC5)cn4)n2)n3CC(F)(F)F)[C@@H](F)C1` [Compound 327B, 1-cyclopropyl-N-{[3-(4-{[(3S,4R)-3-fluoro-1-methylpiperidin-4-yl]amino}-1-(2,2,2-trifluoroethyl)-1H-indol-2-yl)-1,2,4-oxadiazol-5-yl]methyl}-1H-imidazole-4-carboxamide] the value was “* (* = 0 μM ≤ SC150 < 0.1 μM)”; for `COCC(C)(C)n1cc(C(=O)NCc2nc(-c3cc4c(N[C@@H]5CCN(C)C[C@@H]5F)cccc4n3CC(F)(F)F)no2)cn1` [Compound 391B, N-{[3-(4-{[(3S,4R)-3-fluoro-1-methylpiperidin-4-yl]amino}-1-(2,2,2-trifluoroethyl)-1H-indol-2-yl)-1,2,4-oxadiazol-5-yl]methyl}-1-(1-methoxy-2-methylpropan-2-yl)-1H-pyrazole-4-carboxamide], “* (* = 0 μM ≤ SC150 < 0.1 μM)”. On the same count and under the same terms, under `CN1CC[C@@H](Nc2cccc3c2cc(-c2noc(CNC(=O)c4ccc(N(C)C)cc4)n2)n3CC(F)(F)F)[C@@H](F)C1` [Compound 220B, 4-(dimethylamino)-N-{[3-(4-{[(3S,4R)-3-fluoro-1-methylpiperidin-4-yl]amino}-1-(2,2,2-trifluoroethyl)-1H-indol-2-yl)-1,2,4-oxadiazol-5-yl]methyl}benzamide] stands “* (* = 0 μM ≤ SC150 < 0.1 μM)”; under `C[C@@H]1CN(C)CC[C@@H]1Nc1cccc2c1cc(-c1noc(CNC(=O)c3ccc(C(C)(C)O)s3)n1)n2CC(F)(F)F` (stereo in doubt) [Compound 515B, N-{[3-(4-{[(3R,4S)-1,3-dimethylpiperidin-4-yl]amino}-1-(2,2,2-trifluoroethyl)-1H-indol-2-yl)-1,2,4-oxadiazol-5-yl]methyl)-5-(2-hydroxypropan-2-yl)thiophene-2-carboxamide], “* (* = 0 μM ≤ SC150 < 0.1 μM)”; under `CN1CC[C@@H](Nc2cccc3c2cc(-c2noc(CNC(=O)c4cn(C(C)(C)C)cn4)n2)n3CC(F)(F)F)[C@@H](F)C1` [Compound 292B, 1-tert-butyl-N-{[3-(4-{[(3S,4R)-3-fluoro-1-methylpiperidin-4-yl]amino}-1-(2,2,2-trifluoroethyl)-1H-indol-2-yl)-1,2,4-oxadiazol-5-yl]methyl}-1H-imidazole-4-carboxamide], “* (* = 0 μM ≤ SC150 < 0.1 μM)”. `CN1CCC(Nc2cccc3c2cc(-c2noc(CNC(=O)c4nccs4)n2)n3CC(F)(F)F)CC1` [Compound 149B, N-[(3-{4-[(1-methylpiperidin-4-yl)amino]-1-(2,2,2-trifluoroethyl)-1H-indol-2-yl}-1,2,4-oxadiazol-5-yl)methyl]-1,3-thiazole-2-carboxamide]: the “Y220C SC150 (μM)” value is given as “* (* = 0 μM ≤ SC150 < 0.1 μM)”. On the same count and under the same terms, for `CN1CC[C@@H](Nc2cccc3c2cc(-c2noc(CNC(=O)c4cn(C5(C)CCOCC5)cn4)n2)n3CC(F)(F)F)[C@@H](F)C1` [Compound 433B, N-{[3-(4-{[(3S,4R)-3-fluoro-1-methylpiperidin-4-yl]amino}-1-(2,2,2-trifluoroethyl)-1H-indol-2-yl)-1,2,4-oxadiazol-5-yl]methyl}-1-(4-methyloxan-4-yl)-1H-imidazole-4-carboxamide] the value was “* (* = 0 μM ≤ SC150 < 0.1 μM)”. The same measure, in the same setting: under `Cc1c[nH]c2ccc(C(=O)NCc3nc(-c4cc5c(N[C@@H]6CCN(C)C[C@@H]6F)cccc5n4CC(F)(F)F)no3)cc12` [Compound 266B, N-{[3-(4-{[(3S,4R)-3-fluoro-1-methylpiperidin-4-yl]amino}-1-(2,2,2-trifluoroethyl)-1H-indol-2-yl)-1,2,4-oxadiazol-5-yl]methyl}-3-methyl-1H-indole-5-carboxamide] stands “* (* = 0 μM ≤ SC150 < 0.1 μM)”; under `CN1CCC(Nc2cccc3c2cc(-c2nnc(CNc4ccc(S(C)(=O)=O)cc4)o2)n3CC(F)(F)F)CC1` [Compound 111B, 2-(5-{[(4-methanesulfonylphenyl)amino]methyl}-1,3,4-oxadiazol-2-yl)-N-(1-methylpiperidin-4-yl)-1-(2,2,2-trifluoroethyl)-1H-indol-4-amine], “** (** = 0.1 μM ≤ SC150 < 0.5 μM)”. The same measure, in the same setting: for `CN1CC[C@@H](Nc2cccc3c2cc(-c2noc(CNc4cccc5c4ccn5C)n2)n3CC(F)(F)F)[C@@H](F)C1` [Compound 462B, N-[(3S,4R)-3-fluoro-1-methylpiperidin-4-yl]-2-(5-{[(1-methyl-1H-indol-4-yl)amino]methyl}-1,2,4-oxadiazol-3-yl)-1-(2,2,2-trifluoroethyl)-1H-indol-4-amine] the value was “* (* = 0 μM ≤ SC150 < 0.1 μM)”. As for `CN1CC[C@@H](Nc2cccc3c2cc(-c2nnc(CNC(=O)C4CCC4)s2)n3CC(F)(F)F)[C@@H](F)C1` (racemic) [Compound 37B, (+/−)-N-{[5-(4-{[(3R,4S)-3-fluoro-1-methylpiperidin-4-yl]amino}-1-(2,2,2-trifluoroethyl)-1H-indol-2-yl)-1,3,4-thiadiazol-2-yl]methyl}cyclobutanecarboxamide], the “Y220C SC150 (μM)” value is reported as “** (** = 0.1 μM ≤ SC150 < 0.5 μM)”. On the same count and under the same terms, under `COCC1(c2cc(C(=O)NCc3nc(-c4cc5c(N[C@@H]6CCOC[C@@H]6F)cccc5n4CC(F)(F)F)no3)cs2)CC1` [Compound 507B, N-{[3-(4-{[(3R,4R)-3-fluorooxan-4-yl]amino}-1-(2,2,2-trifluoroethyl)-1H-indol-2-yl)-1,2,4-oxadiazol-5-yl]methyl}-5-[1-(methoxymethyl)cyclopropyl]thiophene-3-carboxamide] stands “* (* = 0 μM ≤ SC150 < 0.1 μM)”; under `CC(C)c1nc(C(=O)NCc2nc(-c3cc4c(N[C@@H]5CCN(C)C[C@@H]5F)cccc4n3CC(F)(F)F)no2)cs1` [Compound 434B, N-{[3-(4-{[(3S,4R)-3-fluoro-1-methylpiperidin-4-yl]amino}-1-(2,2,2-trifluoroethyl)-1H-indol-2-yl)-1,2,4-oxadiazol-5-yl]methyl}-2-(propan-2-yl)-1,3-thiazole-4-carboxamide], “* (* = 0 μM ≤ SC150 < 0.1 μM)”; under `CN1CC[C@@H](Nc2cccc3c2cc(-c2noc(CNC(=O)c4cnc(N5CCOCC5)s4)n2)n3CC(F)(F)F)[C@@H](F)C1` [Compound 453B, N-{[3-(4-{[(3S,4R)-3-fluoro-1-methylpiperidin-4-yl]amino}-1-(2,2,2-trifluoroethyl)-1H-indol-2-yl)-1,2,4-oxadiazol-5-yl]methyl}-2-(morpholin-4-yl)-1,3-thiazole-5-carboxamide], “* (* = 0 μM ≤ SC150 < 0.1 μM)”.

In the case of `CN1CCC(Nc2cccc3c2cc(-c2nnc(CNC(=O)c4ccncc4)s2)n3CC(F)(F)F)CC1` [Compound 49B, N-[(5-{4-[(1-methylpiperidin-4-yl)amino]-1-(2,2,2-trifluoroethyl)-1H-indol-2-yl}-1,3,4-thiadiazol-2-yl)methyl]pyridine-4-carboxamide], the “Y220C SC150 (μM)” value was “** (** = 0.1 μM ≤ SC150 < 0.5 μM)”.

The assay is the same for the next values; noted with them: concentration to increase DNA binding by […], incubated at either 27° C. or 29° C. for 60 min.
As for `FC(F)(F)Cn1c(-c2ccc(CNc3cccc(Cl)c3)cc2)cc2c(NC3CCN(C4CCOCC4)CC3)cccc21` [Compound 34A, 2-(4-{[(3-chlorophenyl)amino]methyl}phenyl)-N-[1-(oxan-4-yl)piperidin-4-yl]-1-(2,2,2-trifluoroethyl)-1H-indol-4-amine], the “SC150 (μM)” value is reported as “++++ (++++ = 10 μM ≤ SC150 < 35 μM)”. Still for that read-out and setting: for `Cc1ccc(NCc2ccc(-c3cc4cc(CNC5CCN(C)CC5)ccc4n3CC(F)(F)F)cc2)cn1` [Compound 35A, 6-methyl-N-{[4-(5-{[(1-methylpiperidin-4-yl)amino]methyl}-1-(2,2,2-trifluoroethyl)-1H-indol-2-yl)phenyl]methyl}pyridin-3-amine] the value was “+++ (+++ = 5 μM ≤ SC150 < 10 μM)”.
